Here are results for 11 compounds from ChEMBL document CHEMBL1201862, “PubChem BioAssay data set” (2004).

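Where inhibition never reached the appropriate level, the endpoint shown equals the highest concentration tested. Otherwise, values were interpolated linearly from a five-concentration, 48-hour dose response in 96-well plates. The concentration for 50% growth inhibition is given as GI50.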 Activity calls are given as the source filed them. Rule as the data show it: active = GI50 up to about 1.1 µM and inactive = higher.

Holding throughout (assay): growth of human tumour cells (NCI), 48 h
Assay [1] concerns A498.
Assay [2] concerns CCRF-CEM.
In assay [3] the test system is K562.
Assay [4] concerns KM12.
Assay [5] has as its system LXFL 529.
Assay [6] deals with M14.
For assay [7], the system named is MOLT-4.
Assay [8] has as its system RPMI-8226.
Assay [9] deals with RXF 393.
Assay [10] has as its system SF-268.
Assay [11] deals with SK-MEL-2.
Assay [12] deals with SK-MEL-5.
In assay [13] the test system is SK-OV-3.
Assay [14] relates to SW-620.
The subject of assay [15] is TK-10.
The subject of assay [16] is DU-145.
The subject of assay [17] is Hs-578T.
Assay [18] relates to MCF7.
Assay [19] deals with MDA-N.
For assay [20], the system named is PC-3.

With `CCC(O)(c1ccc(OC)cc1)C(c1ccc(OCc2ccccc2)cc1)c1ccc(OCc2ccccc2)cc1` (stereo not given), the GI50 in assay [1], in [2], in [3], in assay [4], in [5] and in assay [6] was > 100 µM (inactive) in each case. The GI50 in assay [7], in assay [8], in [9], in [10], in [11] and in assay [12] was > 100 µM (inactive) throughout. Also, the GI50 in [13], in [14] and in [15] was > 100 µM (inactive) in each case.
As to `CC1=Nc2c(ccc3c2C(=O)c2ccccc2C3=O)NC(c2ccncc2)C1` (stereo not given), the GI50 in assay [1] is 23.8 µM (inactive); in assay [2], 0.515 µM (active); in [3] it was > 100 µM (inactive); in assay [4] it was 5.07 µM (inactive); in assay [5] it was > 10 µM (inactive); in assay [6] it was > 10 µM (inactive). The GI50 in assay [7] is 3.73 µM (inactive); in assay [8], 4.84 µM (inactive); in assay [9], > 10 µM (inactive); in [10] it was > 10 µM (inactive); in assay [11], > 10 µM (inactive); in assay [12] it was > 100 µM (inactive). Besides, the results for the GI50 in assay [13], in assay [14] and in assay [15] were 6.49 µM (inactive), 52.5 µM (inactive) and > 100 µM (inactive), respectively.
Consider `COC(=O)c1nn(C(=N)c2ccc(Cl)cc2)c2c1CCC2`, for which the GI50 in assay [1], in assay [2], in assay [3], in [4], in assay [5] and in assay [6] was > 100 µM (inactive) throughout. Besides, the GI50 in [7], in assay [8], in assay [9], in [10], in [11] and in [12] was > 100 µM (inactive) in each case. Further, the GI50 in assay [13], in [14] and in assay [15] was > 100 µM (inactive) throughout.
With `COC1C=COC2(C)Oc3c(C)c(O)c4c(O)c(c(/C=N/N5CCN(N)CC5)c(O)c4c3C2=O)NC(=O)C(C)=CC=CC(C)C(O)C(C)C(O)C(C)C(OC(C)=O)C1C` (stereo not given), the GI50 was > 100 µM (inactive) in assay [1]; 20.1 µM (inactive) in assay [2]; 44.4 µM (inactive) in [3]; 68.4 µM (inactive) in assay [4]; 63.4 µM (inactive) in assay [5]; > 100 µM (inactive) in assay [6]. Besides, the GI50 was 39 µM (inactive) in [7]; 29.7 µM (inactive) in [8]; 34.7 µM (inactive) in assay [9]; 62.5 µM (inactive) in assay [10]; > 100 µM (inactive) in assay [11]; 84.3 µM (inactive) in assay [12]. Besides, the values for the GI50 in assay [13], in assay [14] and in assay [15] were > 100 µM (inactive), 48 µM (inactive) and > 100 µM (inactive), respectively.
Consider `O=C1CCCCCCCCCCC(=O)C2CCOCCOCCOCCC1Cc1cccc(n1)C2`, for which the GI50 in [1] was 82.8 µM (inactive); in assay [2] it was 59.2 µM (inactive); in [3], 50.1 µM (inactive); in [4], 59.3 µM (inactive); in assay [5], 59.8 µM (inactive); in [6] it was 67.6 µM (inactive). Besides, the GI50 in assay [7] was 31.6 µM (inactive); in assay [8], 39.1 µM (inactive); in assay [9], 32 µM (inactive); in assay [10] it was 94.4 µM (inactive); in assay [11], > 100 µM (inactive); in [12] it was 42.4 µM (inactive). The GI50 in [13], in assay [14] and in assay [15] was > 100 µM (inactive) throughout.
On to `OCC(O)COc1c(Cl)cc(Cl)cc1Cl` (stereo not given), for which the GI50 in [1] was > 100 µM (inactive); in [2], > 41.8 µM (inactive); in assay [3] it was > 46.6 µM (inactive); in assay [4], > 100 µM (inactive); in assay [5], > 90.8 µM (inactive); in assay [6], > 100 µM (inactive). Moreover, the GI50 in assay [7] is > 31.6 µM (inactive); in assay [8], > 44.9 µM (inactive); in assay [9], > 100 µM (inactive); in [10] it was > 100 µM (inactive); in assay [11], > 100 µM (inactive); in assay [12] it was > 100 µM (inactive). For the same compound, the values for the GI50 in [13], in [14] and in [15] were > 100 µM (inactive), > 34 µM (inactive) and > 100 µM (inactive), respectively.
On to `CCCCN/C(=N\C#N)N(Cc1ccccc1)Cc1ccccc1`, for which the GI50 was 17.3 µM (inactive) in [1]; 16.7 µM (inactive) in assay [2]; 16.6 µM (inactive) in assay [3]; 28.2 µM (inactive) in assay [4]; 16.9 µM (inactive) in assay [5]; 20.1 µM (inactive) in [6]. For the same compound, the GI50 was 17.5 µM (inactive) in [7]; 16.6 µM (inactive) in assay [8]; 45.2 µM (inactive) in assay [9]; 38.1 µM (inactive) in [10]; 15.2 µM (inactive) in assay [11]; 13.3 µM (inactive) in assay [12]. For the same compound, the GI50 in assay [13] was 29.7 µM (inactive); in [14] it was 16 µM (inactive); in assay [15], 31.6 µM (inactive).
As to `CC1(C)COC(c2ccc(C(F)(F)F)cc2C(O)c2ccc3ccccc3c2)=N1` (stereo not given), the GI50 in [1], in [2], in assay [3], in [4], in assay [5] and in [6] was > 10 µM (inactive) each time. Further, the GI50 is > 10 µM (inactive) in assay [7]; > 100 µM (inactive) in assay [8]; 16 µM (inactive) in assay [9]; 82 µM (inactive) in assay [10]; > 10 µM (inactive) in assay [11]; > 10 µM (inactive) in assay [12]. Moreover, the GI50 in [13], in assay [14] and in assay [15] was > 10 µM (inactive) throughout.
Regarding `CC(C)(C)C(=O)/C=C/c1cccc(Oc2ccccc2)c1`, the GI50 in assay [1] is 20 µM (inactive); in assay [2], 4.08 µM (inactive); in [3], 5.93 µM (inactive); in [4], 11.6 µM (inactive); in assay [5] it was 18.1 µM (inactive); in [6], 18.6 µM (inactive). For the same compound, the GI50 in assay [7] is 14.6 µM (inactive); in assay [8], 3.94 µM (inactive); in assay [9], 15 µM (inactive); in assay [10], > 10 µM (inactive); in assay [11] it was 13.1 µM (inactive); in assay [12] it was 14.4 µM (inactive). Moreover, the GI50 is 41 µM (inactive) in [13], > 10 µM (inactive) in assay [14] and > 10 µM (inactive) in assay [15].
Regarding `C[n+]1c2ccccc2c(CNC(CCC(N)=O)C(=O)O)c2ccccc21` (stereo not given), the GI50 is 0.6 µM (active) in [1]; 0.366 µM (active) in assay [2]; 5.52 µM (inactive) in assay [16]; 5.68 µM (inactive) in [17]; 0.34 µM (active) in assay [3]; 2.46 µM (inactive) in assay [4]. In addition, the GI50 in assay [5] is 0.817 µM (active); in assay [6], 3.41 µM (inactive); in [18], 1.02 µM (active); in assay [19], 2.87 µM (inactive); in [7], 0.998 µM (active); in assay [20], 5.61 µM (inactive). Moreover, the GI50 in [8] is 0.39 µM (active); in assay [9] it was 1.99 µM (inactive); in assay [10], 1.77 µM (inactive); in assay [11], 4.76 µM (inactive); in assay [12], 1.99 µM (inactive); in assay [13], 6.21 µM (inactive). For the same compound, the GI50 in [14] is 0.506 µM (active); in assay [15], 1.53 µM (inactive).
For `CN(C)CCCOc1ccc(/C=C2/CCC/C(=C/c3ccc(OCCCN(C)C)cc3)C2=O)cc1`, the GI50 was 1.85 µM (inactive) in [1]; 0.824 µM (active) in assay [2]; 0.299 µM (active) in [3]; 1.32 µM (inactive) in assay [4]; 1.89 µM (inactive) in assay [5]; 2.11 µM (inactive) in assay [6]. The GI50 in assay [7] is 0.877 µM (active); in assay [8], 1.26 µM (inactive); in [9], 1.61 µM (inactive); in [10], 2 µM (inactive); in assay [11], 2.03 µM (inactive); in [12], 2.23 µM (inactive). The GI50 in [13] was 1.93 µM (inactive); in assay [14] it was 1.77 µM (inactive); in assay [15], 2.67 µM (inactive).
